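Test compounds were applied to cells in 96-well plates for 48 hours at 5 doses. The concentration for full growth arrest is given as TGI.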 Where a SMILES comes first, the peptide text is derived from it. [ ]: non-standard residue; d: D form. The star is where a group is joined. Hyp = O=C(O)[CH]1C[CH](O)CN1; Cbz = O=C(OCc1ccccc1)*
What was measured:
Test in all cases: NCI anticancer screen, dose series, 48 h
ACHN renal = test system: ACHN renal
DU-145 prostate = test system: DU-145 prostate
HCC-2998 colon = test system: HCC-2998 colon
HOP-62 NSCLC = test system: HOP-62 NSCLC
HS 578T breast = test system: HS 578T breast
K-562 leukemia = test system: K-562 leukemia
KM12 colon = test system: KM12 colon
M14 melanoma = test system: M14 melanoma
MALME-3M melanoma = test system: MALME-3M melanoma
MDA-MB-435 = test system: MDA-MB-435
MOLT-4 leukemia = test system: MOLT-4 leukemia
NCI-H23 lung = test system: NCI-H23 lung
SF-295 CNS = test system: SF-295 CNS
SK-MEL-2 melanoma = test system: SK-MEL-2 melanoma
SNB-19 CNS = test system: SNB-19 CNS
SR leukemia = test system: SR leukemia
UACC-62 melanoma = test system: UACC-62 melanoma

Measured: TGI

CCC1=NC(N/N=C/c2ccco2)=N/C1=C\c1ccco1
> 100 µM: all assays above

COc1ccccc1CC1(O)OC(=O)c2ccccc21 (configuration not stated)
> 100 µM: all assays above

CCCCCCCCCCCCCC/C(C(=O)O)=C(\C)C(=O)O
> 100 µM: all assays above

CCC12CN(C(=O)OC)C3C(Br)C1CCC(=O)C32 (configuration not stated)
> 100 µM: all assays above

CN1CCN(c2ccc3nc(-c4ccc5nc(CCCc6ccc(N(CCCl)CCCl)cc6)[nH]c5c4)[nH]c3c2)CC1
> 100 µM: all assays above

CC(C)C(=O)/C=C/c1ccc(Cl)cc1Cl
30.9 µM: SF-295 CNS
29.7 µM: ACHN renal
> 100 µM: K-562 leukemia | SR leukemia
20 µM: M14 melanoma
10 µM: MDA-MB-435
28.2 µM: MALME-3M melanoma
22.2 µM: HS 578T breast
96.4 µM: MOLT-4 leukemia
25.7 µM: UACC-62 melanoma
13.7 µM: KM12 colon
27.2 µM: DU-145 prostate
30 µM: HCC-2998 colon
33.1 µM: HOP-62 NSCLC
29.3 µM: SNB-19 CNS
26.8 µM: NCI-H23 lung
27.6 µM: SK-MEL-2 melanoma

CCOC(=O)c1nc2ccc(C(F)(F)F)cc2nc1NCc1ccc(F)cc1
78.3 µM: HCC-2998 colon
86.5 µM: HS 578T breast
> 100 µM: all other assays above

N#CC(C#N)[C@@H]1CCC=C(Sc2ccccc2)[C@H]1Sc1ccccc1
19.9 µM: SF-295 CNS
20.9 µM: NCI-H23 lung
> 100 µM: K-562 leukemia
13.6 µM: MALME-3M melanoma
12.2 µM: KM12 colon | SK-MEL-2 melanoma
10.1 µM: DU-145 prostate
13.9 µM: UACC-62 melanoma
29 µM: SNB-19 CNS
> 23.7 µM: MOLT-4 leukemia
> 27.1 µM: SR leukemia
6.07 µM: ACHN renal
4.95 µM: M14 melanoma
4.53 µM: MDA-MB-435
26.6 µM: HS 578T breast
15.6 µM: HOP-62 NSCLC
6.79 µM: HCC-2998 colon

O=C1NC(=O)C23C(=O)NC(=O)C12C1C=CC3CC1 (configuration not stated)
> 10 µM: all assays above

Cc1cc(=O)[nH]c(Sc2ccc([N+](=O)[O-])cc2[N+](=O)[O-])n1
> 76.4 µM: SF-295 CNS
46.4 µM: SK-MEL-2 melanoma
> 63.4 µM: HS 578T breast
43.5 µM: DU-145 prostate
> 66.8 µM: SNB-19 CNS
> 58.5 µM: HOP-62 NSCLC
30.6 µM: HCC-2998 colon
41.1 µM: NCI-H23 lung
> 67.4 µM: KM12 colon
38.4 µM: ACHN renal
35.7 µM: MALME-3M melanoma
32.3 µM: M14 melanoma
> 55.1 µM: MDA-MB-435
41.4 µM: UACC-62 melanoma
> 100 µM: all other assays above

COc1ccc(N2C(=O)C3c4[nH]c5ccc(OC)cc5c4C4CCC(c5ccccc5)CC4C3C2=O)cc1 (configuration not stated)
24.2 µM: SF-295 CNS
16.9 µM: MOLT-4 leukemia
2.45 µM: SR leukemia
47.4 µM: SK-MEL-2 melanoma
12.7 µM: HS 578T breast
20.8 µM: HOP-62 NSCLC
> 56.3 µM: KM12 colon
49.5 µM: HCC-2998 colon
36.4 µM: UACC-62 melanoma
> 43.9 µM: K-562 leukemia
28.8 µM: SNB-19 CNS
68.4 µM: MDA-MB-435
34 µM: ACHN renal
30.3 µM: MALME-3M melanoma
> 56.8 µM: M14 melanoma
> 100 µM: DU-145 prostate
46.6 µM: NCI-H23 lung

Oc1cc(F)cc2cccnc12
22.1 µM: M14 melanoma
18.2 µM: NCI-H23 lung
1.97 µM: MOLT-4 leukemia
1.15 µM: K-562 leukemia
> 92.1 µM: ACHN renal
2.86 µM: SR leukemia
> 42.6 µM: UACC-62 melanoma
> 100 µM: all other assays above

N#CC(C#N)=C(N)/C(C#N)=C/c1ccc(O)c(O)c1
> 100 µM: all assays above

CN(C)c1cccc2c(S(=O)(=O)NCCCNCCN)cccc12
43.1 µM: K-562 leukemia
62.8 µM: HCC-2998 colon
65.8 µM: MDA-MB-435
33.9 µM: M14 melanoma
76.4 µM: HS 578T breast
41.1 µM: MOLT-4 leukemia
86.7 µM: SK-MEL-2 melanoma
39.1 µM: SR leukemia
> 100 µM: all other assays above

O=C(c1ccccc1)N1CCC(Nc2cccnc2)O1 (configuration not stated)
> 100 µM: all assays above

CNc1ccc(Cl)cc1C(=O)N1CCC[C@H]1CO
> 100 µM: all assays above

CCOC(=O)/C=C(/C(=O)OCC)n1cc(C)c(=O)[nH]c1=O
4.73 µM: K-562 leukemia
15.8 µM: UACC-62 melanoma
29 µM: KM12 colon
5.24 µM: SR leukemia
3.91 µM: M14 melanoma
33.2 µM: HOP-62 NSCLC
32.2 µM: SNB-19 CNS
18.4 µM: SK-MEL-2 melanoma
46.9 µM: HS 578T breast
18.3 µM: NCI-H23 lung
6.51 µM: MOLT-4 leukemia
17.5 µM: HCC-2998 colon
7.51 µM: ACHN renal
31.6 µM: SF-295 CNS
29.7 µM: DU-145 prostate
10.2 µM: MDA-MB-435
4.48 µM: MALME-3M melanoma

NC(=O)CNC(=O)C1CC(O)CN1C(=O)C1CCCN1C(=O)OCc1ccccc1 (stereo not drawn) (Cbz-Pro-[Hyp]-Gly-NH2; configuration not given here)
> 100 µM: all assays above

O=C(Cc1ccccc1)Nc1nc2ccc(Cl)cc2c2nc(-c3ccco3)nn12
> 55.6 µM: SNB-19 CNS
> 62.4 µM: HOP-62 NSCLC
> 77.2 µM: SR leukemia
> 100 µM: all other assays above

Oc1c(O)c(Cc2ccccc2)c(Cc2ccccc2)c(Cc2ccccc2)c1Cc1ccccc1
> 10 µM: all assays above

NC(=S)NN=C1Cc2ccccc2C1
> 100 µM: all assays above

From PubChem BioAssay (NCI)
